Values quoted from earlier work in patent US20060292225A1, “WATER SOLUBLE ANALGESIC FORMULATIONS AND METHODS FOR PRODUCTION” (priority 2005, published 2006).
Read-outs that look alike come from different tables or passages of the source.

Experiments:
[1] = aqueous, hydrolysis

SMILES: CC(=O)Oc1ccccc1C(=O)O [aspirin, Acetylsalicylic acid]
- pH of maximum stability [1]: 2.4
- rate of successful treatment (arthritis inflammation; daily dosage 2500 mg): less than 10%
- rate of successful treatment (arthritis inflammation; daily dosages of 4,000 to 5,000 mg or greater): over 70%
- incidence of side effects (nausea, gastric upset, pain) (higher anti-inflammatory dosages): about 25%
- incidence of side effects (nausea, gastric upset, pain) (low analgesic dose levels, adult users): 2-10%
